Consider 14 compounds from US20120027687A1, “FATTY ACID PROTEIN KINASE C ACTIVATORS AND ANTICOAGULANT FOR THE TREATMENT OF STROKE” (priority 2010, published 2012).

Read-outs that look alike come from different tables or passages of the source. A value given as a limit tells only on which side of the number the result lay.

The target of one series is T1, PKCε (Homo sapiens, UniProt Q02156).
T1 construct: purchased Calbiochem
T1 sequence (Q02156 1-737): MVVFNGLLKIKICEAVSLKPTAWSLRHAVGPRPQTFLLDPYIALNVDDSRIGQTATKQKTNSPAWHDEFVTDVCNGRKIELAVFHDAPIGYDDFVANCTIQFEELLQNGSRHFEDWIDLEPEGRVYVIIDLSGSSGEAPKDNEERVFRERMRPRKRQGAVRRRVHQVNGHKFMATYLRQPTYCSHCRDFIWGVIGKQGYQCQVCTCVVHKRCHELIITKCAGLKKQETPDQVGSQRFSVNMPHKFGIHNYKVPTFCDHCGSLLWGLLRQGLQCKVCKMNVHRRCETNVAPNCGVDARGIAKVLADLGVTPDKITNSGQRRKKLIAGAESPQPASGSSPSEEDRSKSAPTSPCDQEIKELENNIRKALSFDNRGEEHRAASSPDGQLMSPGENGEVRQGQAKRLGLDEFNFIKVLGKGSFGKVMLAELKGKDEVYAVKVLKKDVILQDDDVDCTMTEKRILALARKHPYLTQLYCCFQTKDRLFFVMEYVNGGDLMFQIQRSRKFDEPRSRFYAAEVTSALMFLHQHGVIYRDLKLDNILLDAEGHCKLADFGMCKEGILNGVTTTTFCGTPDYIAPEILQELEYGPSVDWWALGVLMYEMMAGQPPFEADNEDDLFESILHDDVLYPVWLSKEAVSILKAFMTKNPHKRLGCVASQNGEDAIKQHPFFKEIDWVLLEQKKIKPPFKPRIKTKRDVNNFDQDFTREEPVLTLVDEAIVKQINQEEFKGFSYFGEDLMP
The experiment in a line: PKC assay with purified PKCε. The following applies: for effect on purified PKCε (FIG. 7, FIG. 8): preincubated five minutes, radiometric. It counts as biochemical. The method, then:
PKC assay. […] 0.5 micro Ci[^γ32P]ATP was added. […] The reaction was stopped by spotting the reaction mixtures on 1×2 cm strips of cellulose phosphate paper (Whatman P81) and immediately washing twice for 1 hr in 0.5% H3PO4. The cellulose phosphate strips were counted in a scintillation counter. In some experiments, phosphatidylserine, diacylglycerol, and/or calcium were removed. […]
To determine their PKC isozyme specificity, fatty acid derivatives were preincubated with purified PKC for five minutes and the PKC activity was measured radiometrically.

Series [1] has as its system SH-SY5Y neuroblastoma cells. The series is described as follows: Cell survival and proliferation (alamar Blue, CyQuant). It counts as cell-based, human. Conditions: alamar Blue and CyQuant staining. How it is done: (§1) Aβ Measurement and Cell Viability Assay. Aβ was measured using an Aβ 1-42 human fluorimetric ELISA kit (Invitrogen) according to the manufacturer's instructions. Results were measured in a Biotek Synergy HT microplate reader. AlamarBlue and CyQuant NF (Invitrogen) according to the manufacturer's instructions.

Series [2] has as its system Endothelin-converting enzyme (ECE). The series is described as follows: Endothelin-converting enzyme (ECE) activity in neuroblastoma cells. It counts as cell-based, human. Conditions: bryostatin 0.27 nM, BR-101 1 μM, BR-111 1 μM. How it is done: ECE assay. […] neuroblastoma cells were incubated with bryostatin (0.27 nM), BR-101 (DCP-LA) (1 μM), and BR-111 (DHA-CP6) (1 μM). Endothelin-converting enzyme (ECE) was measured fluorimetrically using the method of Johnson and Ahn (Anal. Biochem. (2000), vol. 286, pp. 112-118). A sample of cell homogenate (20 μl) was incubated in 50 mM MES-KOH, pH 6.0, 0.01% C12E10 (polyoxyethylene-10-lauryl ether), and 15 μM McaBK2 (7-Methoxycoumarin-4-acetyl [Ala7-(2,4-Dinitrophenyl)Lys9]-bradykinin trifluoroacetate salt) (Sigma-Aldrich). After 60 min at 37° C., the reaction was quenched by adding trifluoroacetic acid to 0.5%. The sample was diluted to 1.4 ml with water and the fluorescence was measured at ex=334 nm, em=398 nm.

The next series deals with α-secretase. Conditions: cited from earlier work.
The test system of the next series is Aβ. The series is described as follows: Aβ production in N2a neuroblastoma cells transfected with human APPSwe/PSID. It counts as cell-based, mouse. The following applies: 24 hours, various concentrations. The method, then: (§2) Cell culture. Rat hippocampal H19-7/IGF-IR cells (ATCC, Manassas, Va.) were plated onto poly-L-lysine coated plates and grown at 35° C. in DMEM/10% FCS for several days until about 50% coverage was obtained. The cells were then induced to differentiate into a neuronal phenotype by replacing the medium with 5 ml N2 medium containing 10 ng/ml basic fibroblast growth factor at 39° C. and grown in T-75 flasks at 37° C. Human SH-SY5Y neuroblastoma cells (ATCC) were cultured in 45% F12K/45% MEM/10% FCS. Mouse N2A neuroblastoma cells were cultured in DMEM/10% FCS without glutamine. Rat hippocampal neurons from 18-day-old embryonic Sprague Dawley rat brains were plated on 12- or 96-well plates coated with poly-D-lysine (Sigma-Aldrich, St. Louis, Mo.) in B-27 neurobasal medium containing 0.5 mM glutamine and 25 μM glutamate (Invitrogen, Carlsbad, Calif.) and cultured for three days in the medium without glutamate. The neuronal cells were grown under 5% CO2 in an incubator maintained at 37° C. for 14 days.
as §1
To measure the effects of PKCε activation on Aβ production, mouse neuro2a (N2a) neuroblastoma cells transfected with human APPSwe/PSID were used, which produce large quantities of Aβ. Petanceska et al., J. Neurochem. (1996), vol. 74, pp. 1878-1884. […] With bryostatin, which activates PKC by binding to the diacylglycerol-binding site, the inhibition was biphasic with concentrations of 20 nM or higher producing no net effect. This may be explained by the ability of this class of PKC activators to downregulate PKC when used at high concentrations.

In a further series the test system is TACE. The experiment in a line: TACE activity in neuronal cells. In kind it is cell-based, human, mouse. The following applies: SH-SY5Y cells, N2a cells, primary neurons from rat hippocampus. The method, then:
TACE Assay. TACE was measured by incubating 5 μl cell homogenate, 3 μl buffer (50 mM Tris-HCl 7.4 plus 25 mM NaCl plus 4% glycerol), and 1 μl of 100 μM TACE substrate (Aβz-[…]-DPa) (Calbiochem) for 20 min at 37° C. 1.5-ml polypropylene centrifuge tubes. Jin et al., Anal. Biochem. (2002), vol. 302, pp. 269-275. The reaction was stopped by cooling to 4° C. The samples were diluted to 1 ml and the fluorescence was rapidly measured (ex=320 nm, em=420 nm) in a Spex Fluorolog 2 spectrofluorometer.

Series [3] concerns PKC. The series is described as follows: PKC activation over time in H19-7/IGF-IR hippocampal cells. It counts as cell-based, rat. The method, then:
as §2
Protein kinase C assay. Rat hippocampal cells were cultured and scraped in 0.2 ml homogenization buffer (20 mM Tris-HCl, pH 7.4, 50 mM NaF, 1 μg/ml leupeptin, and 0.1 mM PMSF) and homogenized by sonication a Marsonix microprobe sonicator (5 sec, 10W). To measure PKC, 10 μl of cell homogenate or purified PKC isozyme (purchased from Calbiochem) was incubated for 15 min at 37° C. in the presence of 10 μM histones, 4.89 mM CaCl2, 1.2 μg/μl phosphatidyl-L-serine, 0.18 μg/μl 1,2-dioctanoyl-sn-glycerol, 10 mM MgCl2, 20 mM HEPES (pH 7.4), 0.8 mM EDTA, 4 mM EGTA, 4% glycerol, 8 μg/ml aprotinin, 8 μg/ml leupeptin, and 2 mM benzamidine. 0.5 Ci [^γ32P]ATP was added and ^32P-phosphoprotein formation was measured by adsorption onto phosphocellulose as described previously. Nelson and Alkon, J. Neurochemistry (1995), vol. 65, pp. 2350-2357. For measurements of activation by BR-101 (DCP-LA) and similar compounds. PKC activity was measured in the absence of diacylglycerol and phosphatidylserine and PKC δ, ε, η, and μ were measured in the absence of added EGTA and CaCl2, as described by Kanno et al. (J. Lipid Res. 2006, vol. 47, pp. 1146-1150). Low concentrations of Ca^2+ are used because high Ca^2+ interacts with the PKC phosphatidylserine binding site and prevents activation. For measurements of bryostatin activation, 1,2-diacylglycerol was omitted unless otherwise stated.

Series [4] addresses PKC. Conditions: competition with [3H] phorbol dibutyrate; cited from earlier work.
A further series concerns NIC 60 cell line screen. The following applies: cited from earlier work.
For series [5], the system named is PKC. The following applies: cited from earlier work; for Ki: A-ring bryologs, read-out: affinity for PKC.

As for `CCCCCC1OC1C/C=C\CCCCCCCC(=O)OC` (stereo in doubt) [BR-117, vernolic acid methyl ester], on PKCε, the “effect on purified PKCε (FIG. 7, FIG. 8)” value is on record as “little or no effect”.

For `CCC1CC1CC1CC1CC1CC1CCCCCCCCO` (stereo not drawn) [BR-104, linolenic alcohol tricyclopropane], the “effect on purified PKCε (FIG. 7, FIG. 8)” value at PKCε is listed as “little or no effect”.

As to `CCCCCC1CC1CC1CC1CCCCCCCCO` (stereo not drawn) [BR-105, linoleic alcohol dicyclopropane], at PKCε, the “effect on purified PKCε (FIG. 7, FIG. 8)” value is listed as “little or no effect”.

In the case of `CCCCC[C@H]1O[C@H]1CC1CC1CCCCCCCC(=O)OC` (stereo partly drawn) [BR-109, vernolic acid methyl ester cyclopropane], the “concentrations at which PKCε is inhibited” value at PKCε is “above 1 μM”.

As to `CCC1CC1CC1CC1CC1CC1CC1CC1CC1CC1CCCC(=O)OC` (stereo not drawn) [BR-114], on PKCε, the “concentration needed to activate PKC, times lower than for BR-101 (DCP-LA)” value is listed as “approximately 100 times” and the “effect on purified PKCε (FIG. 7, FIG. 8)” value is “activated”.

In the case of `CCCCCC1CC1CC1CC1CC1CC1CC1CC1CCCC(=O)OC` (stereo not drawn) [BR-115, methyl 4-(2-((2-((2-((-pentylcyclopropyl)methyl)cyclopropyl)methyl)cyclopropyl)methyl)cyclopropyl)butanoate methyl ester], at PKCε, the “concentration needed to activate PKC, times lower than for BR-101 (DCP-LA)” value is recorded as “approximately 100 times” and the “effect on purified PKCε (FIG. 7, FIG. 8)” value is given as “activated”.

As for `CCC/C=C/C=C/C(=O)O[C@H]1/C(=C/C(=O)OC)C[C@H]2C[C@H]([C@@H](C)O)OC(=O)C[C@H](O)C[C@@H]3C[C@H](OC(C)=O)C(C)(C)[C@](O)(C[C@@H]4C/C(=C/C(=O)OC)C[C@H](/C=C/C(C)(C)[C@]1(O)O2)O4)O3` [Bryostatin-1], the “effect on cell survival” value in series [1] is “no effect”. In addition, the ECE activity entry in [2] is “sustained increase”. Further, the “increase of initial rate of α-secretase activity” value in the series on α-secretase (10 μM) is given as 16 fold. The “increase of initial rate of α-secretase activity” value in the series on α-secretase (100 μM) was 132 fold. Further, in the series on Aβ, the “levels of intracellular Aβ” value is recorded as “markedly reduced” and the “levels of secreted Aβ” value is on record as “markedly reduced”. The TACE activity entry in the series with TACE is “small increases”. For the same compound, in the series on PKC [3] (0.04 nM and 0.2 nM), the “PKC downregulation following activation” value is 20% and the “time of return of PKC to baseline” value was at most 24 h. For the same compound, in the series with PKC [3] (0.04 nM and 0.2 nM, data not shown), the PKC activation is recorded as 2 fold. Besides, the “PKC activity at 8 hours (downregulation)” value in the series on PKC [3] (data not shown) was “at or near the baseline”.

In the case of `CC1=C[C@]23C(=O)[C@@H](C=C(COC(=O)c4ccccc4)[C@@H](O)[C@]2(O)[C@H]1OC(=O)c1ccccc1)[C@H]1[C@@H](C[C@H]3C)C1(C)C` [Ingenol 3,20-dibenzoate], the Ki at PKC [4] was 240 nM.

In the case of `CC1=CC[C@H](C)C(C)(C)[C@@H]1/C=C/C(C)=C/CC[C@@]1(CO)[C@H](CCCO)/C(=C(/C)C=O)CC[C@]1(C)O` [Iripallidal], in the series with NIC 60 cell line screen, the “GI50 (concentration required to inhibit growth by 50%)” value is recorded as “micromolar to nanomolar range”.

`CCCCCCCCCCCCCC(=O)O[C@@H]1[C@@H](C)[C@@]2(O)[C@@H](C=C(CO)C[C@]3(O)C(=O)C(C)=C[C@@H]23)[C@@H]2C(C)(C)[C@]12OC(C)=O` [PMA, phorbol 12-myristate 13-acetate]: in the series on PKC [5] (read-out: affinity for PKC (EC50)), the concentration giving a half-maximal response (EC50) was […]. Besides, the “PKC activity at 8 hours (downregulation)” value with PKC [3] (data not shown) was “strongly downregulated”.

With `CCCCCCCC(=O)OC1C(=CC(=O)OC)CC2CC(CO)OC(=O)CC(O)CCOC(C(C)(C)C)CC3CCOC(C=CC(C)(C)C1(O)O2)O3` (stereo not drawn) [bryolog 3], the Ki on PKC [5] was 6.5 nM.

On to `CCCCCCCC(=O)OC1C(=CC(=O)OC)CC2CC(CO)OC(=O)CC(O)CCOC(c3ccccc3)CC3CCOC(C=CC(C)(C)C1(O)O2)O3` (stereo not drawn) [bryolog 4], for which the Ki on PKC [5] is 2.3 nM.

`CCCCCCCC(=O)OC1C(=CC(=O)OC)CC2CC(CO)OC(=O)CC(O)CCOC(CCCc3ccc(Br)cc3)CC3CCOC(C=CC(C)(C)C1(O)O2)O3` (stereo not drawn) [bryolog 5]: at PKC [5], the Ki is 1.9 nM.

As to epoxystearic acid [BR-116], at PKCε, the “effect on purified PKCε (FIG. 7, FIG. 8)” value is reported as “little or no effect”.
